System: bile acid transport in the ileum
Assay: Ileum perfusion test: inhibition of bile acid (3H-taurocholic acid) transport in the ileum of anesthetized rats
Assay type: in vivo, Male Wistar rats
Settings: rat ileum perfusion; 3 mM taurocholic acid, pH 7.4, 37° C.; 3H-TCA in bile at 80-90 min vs 30-40 min; diastereomeric mixtures unless indicated otherwise
Protocol: The biological testing of compounds according to the invention was carried out by means of a perfusion test. This test investigates the action of the compounds on the bile acid transport in the ileum. The diastereomeric mixtures of the compounds were tested unless indicated otherwise.
The Perfusion Test was Carried Out as Described Below:
Male Wistar rats (weight range 250-350 g) were anesthetized with urethane (1.5 g/kg i.p.) and the bile duct was cannulated with a polyethylene tube. Eight centimeters proximal to the ileocecal flap, an incision was made into the ileum and a silicone adapter for tubes was sewn in. A second incision with implantation of a corresponding silicone adapter was made in the cecum. Silicone tubes were attached to the adapter in order to perfuse the ileum in an orthograde and open manner (nonrecirculating) with perfusion buffer at a perfusion rate of 1 ml/min.
The perfusion tubes were filled with perfusion buffer (137 mM NaCl, 0.9 mM CaCl2, 0.51 mM MgCl2, 8.1 mM Na2 HPO4, 2.7 mM KCl, 1.47 mM KH2 PO4) (pH 7.4), 1% (v/v) ethanol, and 1% DMSO. The perfusion buffer contained the test compounds in concentrations as indicated, or the vehicle alone. The buffer was preheated to 37° C. The perfusion buffer contained 3 mM taurocholic acid (TCA), which in turn was labeled with 1000 dpm/μl of ^3 H TCA as a marker.
Study Design and Evaluation of the Results
An experimental batch was chosen which allowed the determination of the inhibition of bile acid transport in the individual animal. The bile was collected at 10 min intervals over a period of 90 min (in the case of a following wash-out phase for testing the reversibility over a period of up to 160 min). The perfusion of the vehicle-containing buffer solution over a period of 40 min (pre-test substance) was followed by a perfusion with perfusion buffer which contained the test compound in the concentration to be tested (to 90 min).
For the calculation of the percentage inhibition by the test compound, the dpms (disintegrations per min of ^3 H-TCA) in the bile from 80-90 min (end of the perfusion with the test substance) were related to the collection period 30-40 min during the preliminary phase, when the excretion of the ^3 H-TCA in the control phase had reached its maximum and plateau. The EC50 (=effective concentration 50) was calculated as the effective concentration between the inhibitory values of different concentrations which inhibited the maximum bile acid excretion by 50%.

| SMILES | EC50 |
| --- | --- |
| CCCCC1(CC)CS(=O)(=O)c2ccc(N(C)C)cc2C(c2cccc(NC(=O)CCCCCCCCCCNC(=O)[C@H](O)[C@@H](O)[C@H](O)[C@H](O)CO)c2)N1 (some centres unmarked) [Example 4] | 720 nM |
| CCCCC1(CCCC)CS(=O)(=O)c2ccc(N(C)C)cc2C(c2cccc(NC(=O)[C@H](O)[C@@H](O)[C@H](O)[C@H](O)CO)c2)N1 (some centres unmarked) [Example 5] | 400 nM |
| CCCCC1(CCCC)CS(=O)(=O)c2ccc(N(C)C)cc2C(c2cccc(NC(=O)CCCCNC[C@H](O)[C@@H](O)[C@H](O)[C@H](O)CO)c2)N1 (some centres unmarked) [Example 7] | 1400 nM |
| CCCC[C@]1(CC)CS(=O)(=O)c2cc(OC)c(OC)cc2[C@@H](c2ccccc2)N1 [Comparison Example 8, reference compound] | 9800 nM |

These reach a lower EC50. Values come first.

| EC50 | SMILES |
| --- | --- |
| 220 nM | CCCCC1(CC)CS(=O)(=O)c2ccc(N(C)C)cc2C(c2cccc(NC(=O)CCCCNC[C@H](O)[C@@H](O)[C@H](O)[C@H](O)CO)c2)N1 (some centres unmarked) [Example 3] |
| 150 nM | CCCCC1(CC)CS(=O)(=O)c2ccc(N(C)C)cc2C(c2cccc(NC(=O)[C@H](O)[C@@H](O)[C@H](O)[C@H](O)CO)c2)N1O (some centres unmarked) [Example 2] |
| 90 nM | CCCCC1(CC)CS(=O)(=O)c2ccc(N(C)C)cc2C(c2cccc(NC(=O)[C@H](O)[C@@H](O)[C@H](O)[C@H](O)CO)c2)N1 (some centres unmarked) [Example 1] |
| 90 nM | CCCCC1(CCCC)CS(=O)(=O)c2ccc(N(C)C)cc2C(c2cccc(NC(=O)[C@H](O)[C@@H](O)[C@H](O)[C@H](O)CO)c2)N1O (some centres unmarked) [Example 6] |
